Here are results for six compounds from ChEMBL document CHEMBL5325451, “Structurally Diverse Triterpene-26-oic Acids as Potential Dual ACL and ACC1 Inhibitors from the Vulnerable Conifer Keteleeria fortunei” (J Nat Prod, 2023).

The target of assay [1] is T1, ATP-citrate synthase (Homo sapiens, UniProt P53396).
T1 sequence (P53396 whole entry): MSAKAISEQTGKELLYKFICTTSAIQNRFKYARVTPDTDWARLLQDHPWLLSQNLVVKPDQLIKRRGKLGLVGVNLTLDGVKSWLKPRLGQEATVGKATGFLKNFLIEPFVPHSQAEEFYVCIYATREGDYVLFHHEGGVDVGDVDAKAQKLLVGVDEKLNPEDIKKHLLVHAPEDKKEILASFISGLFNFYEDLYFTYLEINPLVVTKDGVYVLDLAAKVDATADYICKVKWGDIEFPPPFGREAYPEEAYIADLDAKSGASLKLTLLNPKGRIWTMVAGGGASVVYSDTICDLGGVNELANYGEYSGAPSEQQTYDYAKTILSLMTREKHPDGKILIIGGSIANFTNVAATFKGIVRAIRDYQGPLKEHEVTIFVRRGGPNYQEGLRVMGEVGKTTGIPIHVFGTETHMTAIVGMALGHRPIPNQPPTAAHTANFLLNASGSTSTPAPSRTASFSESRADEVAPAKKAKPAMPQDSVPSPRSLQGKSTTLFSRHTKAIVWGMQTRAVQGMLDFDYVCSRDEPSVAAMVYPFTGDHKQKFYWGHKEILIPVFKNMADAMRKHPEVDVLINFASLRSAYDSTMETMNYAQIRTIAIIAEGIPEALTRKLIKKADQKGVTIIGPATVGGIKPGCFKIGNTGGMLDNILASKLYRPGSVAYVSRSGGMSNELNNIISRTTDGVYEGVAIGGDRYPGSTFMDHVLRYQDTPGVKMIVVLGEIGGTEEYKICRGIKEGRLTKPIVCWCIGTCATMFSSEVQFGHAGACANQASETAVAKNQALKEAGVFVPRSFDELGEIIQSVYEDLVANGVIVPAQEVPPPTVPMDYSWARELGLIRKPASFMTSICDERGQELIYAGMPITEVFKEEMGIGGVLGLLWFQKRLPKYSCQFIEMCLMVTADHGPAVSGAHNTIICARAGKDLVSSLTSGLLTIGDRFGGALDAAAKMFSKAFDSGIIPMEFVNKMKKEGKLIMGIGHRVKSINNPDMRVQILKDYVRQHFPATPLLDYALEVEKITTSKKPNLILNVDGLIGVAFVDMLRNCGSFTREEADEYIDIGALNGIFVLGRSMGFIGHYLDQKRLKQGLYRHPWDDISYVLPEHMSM
Briefly: Inhibition of ACL (unknown origin).

In assay [2] the target is T1, ATP-citrate synthase. As to the kind of experiment: Inhibition of ACL (unknown origin) incubated for 30 mins in presence of ATP by ADP-Glo kinase assay.
The next assay addresses Acetyl-CoA carboxylase 1 (Homo sapiens, UniProt Q13085). Briefly: Inhibition of ACC1 (unknown origin) preincubated for 30 mins followed by ATP addition measured for 60 mins by ADP-Glo luminescence assay. On the technique in general: ADP-Glo first removes unused ATP, then detects ADP through luciferase.

The term IC50 denotes the concentration that gives 50% inhibition.

On to `COc1ccc(-c2ccccc2)cc1NS(=O)(=O)c1cc(Cl)cc(Cl)c1O`, for which the IC50 against ATP-citrate synthase [1] was found to be 0.5 µM. With `CC(=O)O[C@@H]1CC[C@]2(C)[C@@H]3CC[C@]4(C)C(=CC[C@@]4(C)[C@H](C)Cc4cc(C(=O)O)co4)C3=CC[C@H]2C1(C)C`, the IC50 worked out at 5.7 µM at ATP-citrate synthase [2] and 10.2 µM on Acetyl-CoA carboxylase 1. As for `C[C@H](Cc1cc(C(=O)O)co1)[C@]1(C)CC[C@]2(C)C1=CC[C@@]13C[C@@]14CC[C@@H](O)C(C)(C)[C@@H]4CC[C@H]32`, the IC50 at ATP-citrate synthase [2] came out at 6.6 µM; at Acetyl-CoA carboxylase 1, 7.5 µM. For the compound `C[C@H](Cc1cc(C(=O)O)co1)[C@H]1CC[C@@]2(C)C3=CC[C@H]4C(C)(C)[C@H](O)CC[C@]4(C)[C@@H]3CC[C@]12C`, the figures for the concentration for half-maximal inhibition (IC50) on ATP-citrate synthase [2] and against Acetyl-CoA carboxylase 1 were 8.8 µM and 8.9 µM, respectively. The corresponding values for `C[C@H](CC/C=C(\CO)C(=O)O)[C@H]1CC[C@@]2(C)[C@@H]3CC[C@H]4C(C)(C)[C@H](O)CC[C@@]45C[C@@]35CC[C@]12C` are 11.4 µM and 8.4 µM. Consider `C/C(=C\CC[C@@H](C)[C@H]1CC[C@@]2(C)[C@@H]3CC[C@H]4C(C)(C)[C@H](O)CC[C@@]45C[C@@]35CC[C@]12C)C(=O)O` [ISOMANGIFEROLIC ACID], for which the IC50 on ATP-citrate synthase [2] came to 7.6 µM; at Acetyl-CoA carboxylase 1 it was 10.5 µM.
